Measured values reported in patent US8791132B2, “Compounds and methods for treatment of hypertension” (Medivation Technologies, Inc., priority 2011, dated 2014).
Several values for one entry are separate records, joined by “and”; a condition that tells them apart may be missing. Equal values may be shown once. Read-outs that look alike come from different tables or passages of the source.

How the values were obtained:
[1] = target: T1, rat adrenergic α1B receptor (Rattus norvegicus, UniProt P15823); assay: Radioligand binding, adrenergic α1B ([3H]Prazosin); details: [3H]Prazosin, repeat datapoints each shown; for Percentage inhibition of ligand binding, Adrenergic α1B (0.1 μM): compound at 0.1 μM; for inhibition at 0.03 µM: read-out: Percentage inhibition of ligand binding, Adrenergic α1B (0.03 μM), compound at 0.03 μM; for inhibition at 0.1 µM: read-out: Percentage inhibition of ligand binding, Adrenergic α1B (0.1 μM), compound at 0.1 μM
T1 construct: rat adrenergic α1B receptor obtained from Wistar Rat liver; from tissue; host or cells: Wistar rat liver
T1 sequence (P15823 1-515): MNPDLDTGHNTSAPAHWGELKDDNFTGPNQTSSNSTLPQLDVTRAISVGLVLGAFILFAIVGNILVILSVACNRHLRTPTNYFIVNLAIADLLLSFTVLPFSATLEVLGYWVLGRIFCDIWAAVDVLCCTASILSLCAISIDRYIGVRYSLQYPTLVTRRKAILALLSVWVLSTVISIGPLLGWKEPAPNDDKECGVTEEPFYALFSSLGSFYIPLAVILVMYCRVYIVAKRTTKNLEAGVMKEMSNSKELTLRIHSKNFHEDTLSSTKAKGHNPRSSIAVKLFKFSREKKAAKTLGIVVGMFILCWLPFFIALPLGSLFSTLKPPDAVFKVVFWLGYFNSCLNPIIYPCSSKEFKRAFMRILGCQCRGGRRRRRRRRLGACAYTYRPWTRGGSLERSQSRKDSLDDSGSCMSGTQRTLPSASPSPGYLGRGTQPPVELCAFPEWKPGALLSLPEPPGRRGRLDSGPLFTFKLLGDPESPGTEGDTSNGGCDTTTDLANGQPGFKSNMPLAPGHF
In short: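 Filter binding with Wistar rat liver α1B preparation: test compound plus 0.25 nM [3H]prazosin, 1 h at 25° C in modified Tris-HCl buffer pH 7.4.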

[2] = target: T2, human recombinant adrenergic α2B receptor (Homo sapiens, UniProt P18089); assay: Radioligand binding, adrenergic α2B ([3H]Rauwolscine); details: for Percentage inhibition of ligand binding, Adrenergic α2B (0.03 μM): compound at 0.03 μM; for Percentage inhibition of ligand binding, Adrenergic α2B (0.03 μM) / inhibition at 0.03 µM / inhibition at 0.1 µM: [3H]Rauwolscine, repeat datapoints each shown; for inhibition at 0.03 µM: read-out: Percentage inhibition of ligand binding, Adrenergic α2B (0.03 μM), compound at 0.03 μM; for inhibition at 0.1 µM: read-out: Percentage inhibition of ligand binding, Adrenergic α2B (0.1 μM), compound at 0.1 μM
T2 construct: expressed in transfected cells; host or cells: CHO-K1
T2 sequence (P18089 1-450): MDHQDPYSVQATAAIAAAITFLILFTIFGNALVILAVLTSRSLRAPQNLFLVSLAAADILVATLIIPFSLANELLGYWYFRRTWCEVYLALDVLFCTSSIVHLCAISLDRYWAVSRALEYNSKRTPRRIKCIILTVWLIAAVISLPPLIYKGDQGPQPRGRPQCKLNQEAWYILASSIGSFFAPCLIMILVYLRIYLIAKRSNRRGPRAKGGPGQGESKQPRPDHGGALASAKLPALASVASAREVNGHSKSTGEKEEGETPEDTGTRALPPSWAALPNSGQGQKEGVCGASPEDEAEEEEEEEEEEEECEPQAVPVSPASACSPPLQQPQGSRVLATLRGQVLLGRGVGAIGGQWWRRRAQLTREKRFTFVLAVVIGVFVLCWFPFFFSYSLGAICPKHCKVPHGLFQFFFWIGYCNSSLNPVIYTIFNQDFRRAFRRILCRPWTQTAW
In short: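 Values are percent inhibition of specific radioligand binding. The receptor, expressed in CHO-K1 cells, was exposed to 2.5 nM [3H]Rauwolscine at 25° C for 60 min, with 10 μM Prazosin marking non-specific binding.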

[3] = target: T3, human recombinant adrenergic α2A receptor (Homo sapiens, UniProt P08913); assay: Radioligand binding, adrenergic α2A ([3H]MK-912); details: [3H]MK-912, repeat datapoints each shown; for Percentage inhibition of ligand binding, Adrenergic α2A (0.1 μM): compound at 0.1 μM; for inhibition at 0.1 µM: read-out: Percentage inhibition of ligand binding, Adrenergic α2A (0.1 μM), compound at 0.1 μM
T3 construct: expressed in transfected cells; host or cells: insect Sf9 cells
T3 sequence (P08913 1-465): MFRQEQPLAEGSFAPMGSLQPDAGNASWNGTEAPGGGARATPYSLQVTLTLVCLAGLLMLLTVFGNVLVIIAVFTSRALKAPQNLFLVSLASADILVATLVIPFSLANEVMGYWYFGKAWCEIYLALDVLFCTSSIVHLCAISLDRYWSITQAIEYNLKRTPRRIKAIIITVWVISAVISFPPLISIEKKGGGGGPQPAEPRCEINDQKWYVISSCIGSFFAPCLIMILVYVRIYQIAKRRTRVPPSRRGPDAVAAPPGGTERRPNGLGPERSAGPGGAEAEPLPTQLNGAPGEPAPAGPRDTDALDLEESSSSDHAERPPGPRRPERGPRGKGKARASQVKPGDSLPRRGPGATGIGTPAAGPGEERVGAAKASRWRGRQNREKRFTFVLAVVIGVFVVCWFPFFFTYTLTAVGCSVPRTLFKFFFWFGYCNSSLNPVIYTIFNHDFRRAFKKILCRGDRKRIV
In short: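 Receptor expressed in insect Sf9 cells, assayed in 50 mM Tris-HCl pH 7.4 with 12.5 mM MgCl2 and 2 mM EDTA. Compounds incubated with 1 nM [3H]MK-912 for 60 min at 25 °C; nonspecific binding defined with 10 μM WB-4101. Filter-bound radioactivity counted; values are percent inhibition of specific binding.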

Row | Structure (SMILES) | Percentage inhibition of ligand binding, Adrenergic α1B (0.1 μM) [1] [%] | Percentage inhibition of ligand binding, Adrenergic α2B (0.03 μM) [2] | Percentage inhibition of ligand binding, Adrenergic α2A (0.1 μM) [3] [%] | inhibition at 0.03 µM [1] [%] | inhibition at 0.1 µM [1] [%] | Ki ([2]; read-out: Ki α2B) [nM] | inhibition at 0.03 µM [2] [%] | inhibition at 0.1 µM [2] [%] | inhibition at 0.1 µM [3] [%] | Ki ([2]; Ki α2B) [nM]
1 | Cc1ccc2c(c1)c1c(n2CC(OC(=O)c2ccncc2)c2ccncc2)CCN(C)C1 (single isomer, unassigned) [147a, isonicotinic acid 2-(2,8-dimethyl-1,2,3,4-tetrahydro-pyrido[4,3-b]indol-5-yl)-1-pyridin-4-yl-ethylester] | 33 | 72% | 3 |  |  |  |  |  |  | 
2 | Cc1ccc2c(c1)c1c(n2CC(OC(=O)c2ccncc2)c2ccncc2)CCN(C)C1 (single isomer, unassigned) [147b, isonicotinic acid 2-(2,8-dimethyl-1,2,3,4-tetrahydro-pyrido[4,3-b]indol-5-yl)-1-pyridin-4-yl-ethylester] | 82 | 93% | 36 |  |  |  |  |  |  | 
3 | Cc1cnc2c(c1)c1c(n2CC(C)(O)c2ccc(C)nc2)CCN2CCCC12 (single isomer, unassigned) [148a] | 23 | 52% | −5 |  |  |  |  |  |  | 
4 | Cc1cnc2c(c1)c1c(n2CC(C)(O)c2ccc(C)nc2)CCN2CCCC12 (single isomer, unassigned) [148b] | 74 |  |  | 35 | 71 | 0.43 | 105 | 106 | 37 | 
5 | Cc1cnc2c(c1)c1c(n2CC(C)(O)c2ccc(C)nc2)CCN2CCCC12 (single isomer, unassigned) [148c] | 6 | 16% | −1 |  |  |  |  |  |  | 
6 | Cc1ccc2c(c1)c1c(n2CC(C)(N)c2cccnc2)CCN(C)C1 (single isomer, unassigned) [149a, 1-(2,8-dimethyl-3,4-dihydro-1H-pyrido[4,3-b]indol-5(2H)-yl)-2-(pyridin-3-yl)propan-2-amine] |  |  | −4 |  | 12 |  | 16 |  |  | 
7 | Cc1ccc2c(c1)c1c(n2CC(C)(N)c2cccnc2)CCN(C)C1 (single isomer, unassigned) [149b, 1-(2,8-dimethyl-3,4-dihydro-1H-pyrido[4,3-b]indol-5(2H)-yl)-2-(pyridin-3-yl)propan-2-amine] | 16 | 32% | 19 |  |  |  |  |  |  | 
8 | Cc1ccc2c(c1)c1c(n2CC(c2ccncc2)N(C)C)CCN(C)C1 (single isomer, unassigned) [150a] |  | 96% |  |  | 16 | 1.57 | 88 | 100 | 16 | 
9 | CNC(Cn1c2c(c3cc(C)ccc31)CN(C)CC2)c1ccncc1 (single isomer, unassigned) [151a, 2-(1,2,3,4-tetrahydro-2,8-dimethylpyrido[4,3-b]indol-5-yl)-N-methyl-1-(pyridin-4-yl)ethanamine] |  | 93% |  |  | 11 |  |  |  | 15 | 
10 | CNC(Cn1c2c(c3cc(C)ccc31)CN(C)CC2)c1ccncc1 (single isomer, unassigned) [151b, 2-(1,2,3,4-tetrahydro-2,8-dimethylpyrido[4,3-b]indol-5-yl)-N-methyl-1-(pyridin-4-yl)ethanamine] | 9 | 37% | 8 |  |  |  |  |  |  | 
11 | Cc1ccc2c(c1)c1c(n2CC(N)c2ccncc2)CCN(C)CC1 (single isomer, unassigned) [154a, 2-(3,9-dimethyl-2,3,4,5-tetrahydroazepino[4,5-b]indol-6(1H)-yl)-1-(pyridin-4-yl)ethanamine] | 39 | 31% | 4 |  |  |  |  |  |  | 
12 | Cc1ccc2c(c1)c1c(n2CC(N)c2ccncc2)CCN(C)CC1 (single isomer, unassigned) [154b, 2-(3,9-dimethyl-2,3,4,5-tetrahydroazepino[4,5-b]indol-6(1H)-yl)-1-(pyridin-4-yl)ethanamine] |  | 83% |  | 80 | 95 |  | 80 | 95 | 5 | 3.33
13 | Cc1ccc2c(c1)c1c(n2CC(N)c2ccncc2)CC2CCC1N2C (single isomer, unassigned) [155b] | 1 | 5% | 5 |  |  |  |  |  |  | 
14 | Cc1cnc2c(c1)c1c(n2CC(N)c2ccc(C#N)cc2)CCN(C)C1 (single isomer, unassigned) [159b] | 53 | 52% | −12 |  |  |  |  |  |  | 
15 | Cc1cnc2c(c1)c1c(n2CC(N)c2ccc(C#N)cc2)CCNC1 (single isomer, unassigned) [160a] | 35 |  | −12 |  |  |  | 43 |  |  | 
16 | Cc1cnc2c(c1)c1c(n2CC(N)c2ccc(C#N)cc2)CCNC1 (single isomer, unassigned) [160b] | 65 | 41% | 5 |  |  |  |  |  |  | 
17 | Cc1ccc2c(c1)c1c(n2CC(O)c2ccc(F)cc2F)CCN(C)CC1 (single isomer, unassigned) [172a] | 54 | 65% | 18 |  |  |  |  |  |  | 
18 | Cc1ccc2c(c1)c1c(n2CC(O)c2ccc(F)cc2F)CCN(C)CC1 (single isomer, unassigned) [172b] | 92 | 93% | 46 |  |  |  |  |  |  | 
19 | CN1CCc2c(c3ccccc3n2CC(C)(O)c2cccnc2)C1 (single isomer, unassigned) [173a] |  | 61% and 68% | 15 |  | 5 | 8.77 |  | 82 |  | 
